{"source": "patent US11807852B2", "about": "“Compositions and methods for reactivating latent immunodeficiency virus” (The J. David Gladstone Institutes, a testamentary trust …, priority 2014, dated 2023)", "key": {"[1]": {"target": "SMYD2 (Homo sapiens, UniProt Q9NRG4)", "sequence (Q9NRG4 whole entry)": "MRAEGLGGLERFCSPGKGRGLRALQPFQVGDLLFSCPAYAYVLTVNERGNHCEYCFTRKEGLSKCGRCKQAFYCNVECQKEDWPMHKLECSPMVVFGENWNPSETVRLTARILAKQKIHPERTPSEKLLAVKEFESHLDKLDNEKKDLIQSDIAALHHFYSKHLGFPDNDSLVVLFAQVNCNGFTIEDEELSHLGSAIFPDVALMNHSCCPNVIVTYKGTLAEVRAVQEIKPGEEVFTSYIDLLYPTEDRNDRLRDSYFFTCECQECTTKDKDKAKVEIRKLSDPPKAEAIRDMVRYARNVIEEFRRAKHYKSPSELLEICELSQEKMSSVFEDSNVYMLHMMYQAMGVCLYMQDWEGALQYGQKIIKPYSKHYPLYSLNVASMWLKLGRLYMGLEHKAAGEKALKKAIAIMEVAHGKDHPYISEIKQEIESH", "conditions": "cited from earlier work"}, "[2]": {"system": "J-Lat cells (clone A2: LTR-Tat-IRES-GFP)", "format": "cell-based", "conditions": "A2 J-Lat cells, single agent", "description": "To test this hypothesis, J-Lat cells (clone A2: LTR-Tat-IRES-GFP) were treated with SMYD2 inhibitors. […] Both cell lines were co-treated with X2 and Ingenol 3,20-dibenzoate (a protein kinase C (PKC) activator), JQ1 (BET-bromodomain inhibitor), or the histone deacetylase (HDAC) inhibitor suberoylanilidehydroxamic acid (SAHA)."}, "[3]": {"conditions": "cited from earlier work"}, "[4]": {"system": "J-Lat A72 cell line (LTR-GFP)", "description": "J-Lat (clones A2 and A72) cell lines were cultured as described in Jordan et al., EMBO J. 2003 Apr. 15:22(8):1868-77. Human αCD3/αCD28 beads (Life Technologies) were used at a concentration of 1 bead/cell ratio. JQ1 (Sigma-Aldrich) was used at a concentration of 0.1-10 μM. Ingenol 3,20-dibenzoate (Sigma-Aldrich) was used at concentrations of 5-200 nM, and SAHA (Sigma-Aldrich) was used at concentrations of 110 nM, 330 nM, or 1 μM.\nHEK293T cells were obtained from the American Type Culture Collection. J-Lat (clones A2, A72, and 5A8) cell lines were described (Chan et al., 2013; Jordan et al., 2003). HEK293T cells were cultured in DMEM supplemented with 10% FBS, 1% L-glutamine and 1% penicillin-streptomycin (Life Technologies). J-Lat cells were cultured in RPMI supplemented with 10% FBS, 1% L-glutamine and 1% penicillin-streptomycin (Life Technologies). […] TNFα (Sigma-Aldrich) was used at 0.5-10 ng/ml. Human αCD3/αCD28 Dynabeads (Invitrogen) were used at a 1 bead/cell ratio. JQ1 (Cayman Chemical) was used at 0.1-10 μM. Ingenol 3,20-dibenzoate (Santa Cruz Biotechnology) was used at 5-200 nM, and SAHA (Merck) was used at 110 nM, 330 nM, or 1 μM. Phorbol 12-myristate 13-acetate (PMA) (Sigma) was used at 10 nM and ionomycin (Sigma) was used at a concentration of 500 nM. UNC926 (Tocris Bioscience) was used at a concentration of 10 nM-100 μM. AZ505. AZ506, and AZ391 were used at a concentration of 10 nM-10 μM.\nShRNA-expressing lentiviral vectors were purchased from Sigma-Aldrich. The pLKO.1 vector containing a scrambled shRNA was used as control. […] J-Lat 5A8, A72 and A2 cells were spininfected with virus (1 ng of p24 per 10^6 cells) containing shRNAs against KMTs or nontargeting control shRNAs and were selected with puronycin (2 μg/ml: Sigma). After 7 days of selection, cells were treated with the indicated concentration of drugs. The percentage of GFP^+ cells was determined after 18 h using a MACSQuant VYB FACS analyzer (Miltenyi Biotech GmbH). Cell viability was monitored by forward-and-side scatter analysis. Analysis was conducted on 3×10,000 live cells per condition. Data were analyzed using FlowJo 9.5 (Tree Star)."}, "[5]": {"target": "T1, L3MBTL1 (Homo sapiens, UniProt Q9Y468)", "T1 sequence (Q9Y468 1-840)": "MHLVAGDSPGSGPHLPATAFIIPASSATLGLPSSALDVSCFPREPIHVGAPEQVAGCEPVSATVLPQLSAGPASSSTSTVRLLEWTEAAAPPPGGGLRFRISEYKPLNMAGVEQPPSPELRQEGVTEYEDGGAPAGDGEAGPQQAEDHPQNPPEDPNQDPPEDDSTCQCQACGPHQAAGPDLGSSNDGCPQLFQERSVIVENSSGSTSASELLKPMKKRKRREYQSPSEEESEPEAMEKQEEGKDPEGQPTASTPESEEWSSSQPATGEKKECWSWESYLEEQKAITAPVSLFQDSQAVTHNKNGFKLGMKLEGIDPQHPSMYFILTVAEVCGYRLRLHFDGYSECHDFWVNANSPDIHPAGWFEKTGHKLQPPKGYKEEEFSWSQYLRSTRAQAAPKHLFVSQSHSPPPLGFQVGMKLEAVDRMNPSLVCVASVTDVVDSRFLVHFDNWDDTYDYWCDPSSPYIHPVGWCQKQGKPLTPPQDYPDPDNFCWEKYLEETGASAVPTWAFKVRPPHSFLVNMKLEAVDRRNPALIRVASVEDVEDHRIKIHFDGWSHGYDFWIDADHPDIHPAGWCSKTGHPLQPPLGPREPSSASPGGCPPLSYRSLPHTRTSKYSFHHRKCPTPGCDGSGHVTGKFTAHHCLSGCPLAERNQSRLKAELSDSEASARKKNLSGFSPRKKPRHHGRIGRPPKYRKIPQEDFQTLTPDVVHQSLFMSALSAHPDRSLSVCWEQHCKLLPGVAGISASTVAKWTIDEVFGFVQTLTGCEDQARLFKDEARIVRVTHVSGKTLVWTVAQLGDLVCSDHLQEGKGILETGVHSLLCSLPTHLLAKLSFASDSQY", "conditions": "cited from earlier work"}, "[6]": {"system": "J-Lat 5A8 cells", "test": "SMYD5 shRNA knockdown in J-Lat 5A8 cells (qPCR, GFP flow cytometry)", "format": "cell-based", "conditions": "for SMYD5 knockdown efficiency by qPCR: J-Lat 5A8 cells; for reactivation of viral latency (GFP) after CD3/28 antibody stimulation: suboptimal, medium or saturating doses, 24 hours", "description": "ShRNA-expressing lentiviral vectors were purchased from Sigma-Aldrich. The plasmids TRCN000155095 (Target sequence: […]) (SEQ ID NO:76) and TRCN0000156306 (Target sequence: […]) (SEQ ID NO:77) were used to deplete SMYD5. The pLKO. I vector containing a scrambled shRNA was used as control. […]; 272:263-7), and titered for p24 content. […] Data were analyzed using FlowJo 9.5 (Tree Star).\nRNA was isolated using RNeasy Plus Mini Kit (Qiagen) and reverse-transcribed using SuperScript III Reverse Transcriptase (Invitrogen) as per the manufacturer's instructions. Quantitative RT-PCR was carried out using Maxima SYBR Green qPCR Master Mix (Thermo Scientific) on SDS 2.4 software (Applied Biosystems) in a total volume of 12 μL. Primer efficiencies were around 100%. Dissociation curve analysis was performed after the end of the PCR to confirm the presence of a single and specific product.\nTo confirm results from the shRNA screen, SMYD5 was individually knocked down in J-Lat 5A8 cells. Cells were transduced with lentiviral vectors expressing two different shRNAs targeting SMYD5 or a scrambled control shRNA, followed by puromycin treatment to select successfully transduced cells. The shRNA knockdown was confirmed using qPCR and failed for #1 and was ˜50% effective for #2 (FIG. 26A). Cells were then stimulated with suboptimal, medium, or saturating doses of CD3/28 antibodies or were left unstimulated for 24 hours, followed by flow cytometry of GFP. […] To test effects of SMYD5 on basal HIV-1 transcription we analyzed RNAs from nonactivated control and SMYD5 knockdown cells with primers specific for the viral LTR; mRNAs for SMYD5 and the NF-κB factor p65 were used as controls (FIG. 26D). SMYD5 knockdown reduced basal HIV-1 transcription by ˜50% mirroring the knockdown efficiency of shRNA #2 (FIG. 26D). In independent experiments to investigate the biological role of SMYD5 during HIV transcription, HeLa cells were transfected with an HIV LTR luciferase construct and expression vectors for Tat and SMYD5. Overexpression of SMYD5 marked activation of a co-transfected viral LTR-luciferase reporter construct was observed (FIGS. 28A and 28B). To identify the target for SMYD5 in HIV-1 infection, we performed in vitro methylation assays with recombinant SMYD5 on purified human histones, Tat (aa 1-72) [SEQ ID NO. 39], NF-κB, RelA, Sp1, and P-TEFb components cyclin T1 and CDK9. Reactions included 3H-SAM and were performed with or without recombinant SMYD5 enzyme. After gel electrophoresis, coomassie staining and autoradiography no methylation was detected for RelA, Sp1, cyclin T1 and CDK9 (FIG. 27). However, histones H3 and H1 were weakly and Tat strongly methylated by SMYD5 (FIG. 27). To map the site of methylation in Tat, we performed in vitro methylation reactions using non-radiolabeled SAM and subjected them to reversed-phase liquid chromatography electrospray tandem mass spectrometry (LC-MS/MS). This analysis identified a single site, trimethylation of K41, identified in two distinct peptides (not shown). No mono or dimethylation at Tat K41 was observed."}}, "note": "“Also recorded” adds a separate entry of the source. Where two headings read alike, the source gives them in different places.", "data": [{"compound": "O=C1COc2c(CCNCCN(C(=O)CCNCCc3ccc(Cl)c(Cl)c3)C3CCCCC3)ccc(O)c2N1", "note": "[AZ505, N-cyclohexyl-3-((3,4-dichlorophenethyl)amino)-N-(2-((2-(5-hydroxy-3-oxo-3,4-dihydro-2H-benzo[b][1,4]oxazin-8-yl)ethyl)amino)ethyl)propanamide bis(2,2,2-trifluoroacetate), reference compound]", "values": [{"measurement": "Kd compared with the p53 peptide", "setting": "[1]", "result": "approximately sevenfold lower than the p53 peptide"}, {"measurement": "activation of HIV transcription / reactivation of the HIV-LTR (GFP)", "setting": "[2]", "result": "failure of AZ505 to effectively activate HIV transcription"}, {"measurement": "cell permeability", "setting": "[3]; bis(2,2,2-trifluoroacetate)", "result": "lack of cell permeability; also recorded: not cell-penetrable"}]}, {"compound": "O=C(NCCCN1CCCC1)c1cncc(-c2ccccc2N2CCN(CCc3c[nH]c4ccccc34)CC2)c1", "note": "[AZ506]", "values": [{"measurement": "activation of GFP expression / reactivation of the HIV-LTR", "setting": "[4]; A72 J-Lat cells, single agent", "result": "activated GFP expression at high concentrations"}, {"measurement": "cell permeability", "setting": "[3]", "result": "cell-permeable"}]}, {"compound": "UNC926 [reference compound]", "values": [{"measurement": "concentration at which activation is observed", "setting": "[4]; A72, 10 nM-100 μM, without or with 0.1 ng/ml TNFα, 18 h", "result": 100, "unit": "µM"}, {"measurement": "viability by forward-side scatter analysis", "setting": "[4]; A72, up to 100 μM, 18 h", "result": "No effect on viability"}, {"measurement": "basal transcriptional activity", "setting": "[4]; A72 J-Lat cells", "result": "a doubling in basal transcriptional activity"}, {"measurement": "Kd", "setting": "[5]", "result": 3.9, "unit": "µM"}]}, {"compound": "shRNA #1: lentiviral shRNA targeting SMYD5 (SEQ ID NO:74) (CCGGGCTATGGGAATTACAACCCATCTCGAGATGGGTTGTAATTCCCATAGCTTTTTTG)", "values": [{"measurement": "SMYD5 knockdown efficiency by qPCR", "setting": "[6]", "result": "failed"}, {"measurement": "reactivation of viral latency (GFP) after CD3/28 antibody stimulation", "setting": "[6]", "result": "had no effect"}]}, {"compound": "shRNA #2: lentiviral shRNA targeting SMYD5 (SEQ ID NO:75) (CCGGCTGTGACACTCTGGAGTTGAACTCGAGTTCAACTCCAGAGTGTCACAGTTTTTTG)", "values": [{"measurement": "SMYD5 knockdown efficiency by qPCR", "setting": "[6]", "result": "~50", "unit": "%"}, {"measurement": "reduction of basal HIV-1 transcription (viral LTR RNA, RT-qPCR)", "setting": "[6]; nonactivated cells", "result": "~50", "unit": "%"}, {"measurement": "reactivation of viral latency (GFP) after CD3/28 antibody stimulation", "setting": "[6]", "result": "suppressed reactivation of viral latency"}]}]}
